We go through 16 molecules from patent publication US20240366606A1, “MRGPRX2 ANTAGONISTS AND USES THEREOF” (The Regents of the University of California, priority 2021, published 2024).

In assay [1] the target is T1, MRGPRX2 (Homo sapiens (Human), UniProt Q96LB1). The assay is described as follows: FLIPR Ca2+ assay, antagonist mode, tetracycline-inducible MRGPRX2 stable cell line. The following applies: for antagonist activity for MRGPRX2: in words, SAR around '1592; for inhibition of substance P stimulated MRGPRX2 activation: EC80 substance P concentration. The assay is classed as cell-based. Here is the method:
FLIPR Ca2+ assay. […] NK1 stably expressing cell were maintained in DMEM containing 10% (v/v) FBS, 100 units ml^−1 penicillin G and 100 μg ml^−1 streptomycin. On the day of assay, cells were plated into Poly-L-Lysine (PLL) coated 384-well black clear bottom cell culture plates with DMEM buffer, which is composed of 1% (v/v) dialyzed FBS, 100 units ml^−1 penicillin G, 100 μg ml^−1 streptomycin with 1 μg ml^−1 tetracycline at density of 20,000 cells in 40 μl per well for overnight. For NK1 stable cells, the same media used for MRGPRX2 or MRGPRX4 cells except the tetracycline were used. Medium was removed and cells were incubated with 20 μl of calcium dye (FLIPR Calcium 4 Assay Kit; Molecular Devices) diluted in assay buffer (1×HBSS, 2.5 mM probenecid, and 20 mM HEPES, pH 7.4) for 1 hour at 37° C. and 20 min at room temperature in the dark. To measure agonist activity of receptors, drug plates were prepared with increasing concentrations of test compound at 3 times the desired final concentration using drug buffer (1×HBSS, 20 mM HEPES, 0.1% (w/v) BSA, pH 7.4). Once loaded in FLIPR (Molecular Devices), basal fluorescence was measured for 10 s, then 10 μl of test compounds were added followed by continued fluorescence measurement for an additional 120 s. When measuring antagonist activity of receptors, drug plates were prepared with increasing concentrations of test compound at 4 times the desired final concentration, added as above for their potential effects on basal levels for 120 s first, followed by a 15 min incubation before addition of 10 μl of 4× of reference agonist at final concentration corresponding to the EC80. Data were normalized to % reference compound stimulation and analyzed using nonlinear regression “log(agonist) vs. response” in GraphPad Prism 9.0.

Assay [2] deals with T1, MRGPRX2. Description: BRET1 recruitment assay (inverse agonist activity, miniGq recruitment) in HEK293T cells. Format: cell-based. Here is the method:
Bioluminescence resonance energy transfer assay 1 (BRET1). To test the inverse agonist activities of MRGPRX2 compounds, BRET1 recruitment assay was performed. Human MRGPRX2 containing C-terminal Renilla luciferase (RLuc8), and Venus-tagged miniGq were co-transfected at a ratio of 1:5 using HEK293T cells. After 20-24 hours, transfected cells were plated into poly-L-lysine coated 96-well clear bottom white plate in plating media (DMEM+1% (v/v) dialyzed FBS). The next day, media was decanted and cells were washed once with 60 μl drug buffer (1×HBSS, 20 mM HEPES, 0.1% (w/v) BSA, pH 7.4), then 60 μl drug buffer containing 5 μM coelenterazine h (Promega) was added to each well and incubate for 5 min. Cells were then treated with 30 μl of 3× designated drug for an additional 5 minutes. After drug incubation, plates were read in an LB940 Mithras plate reader (Berthold Technologies) for both luminescence at 485 nm and fluorescent eYFP emission at 530 nm for 1 s per well. The ratio of eYFP/RLuc was calculated per well and the net BRET ratio was calculated and fitted using “log(inhibitor) vs. response” in GraphPad Prism 9.0 to represent the inhibitory effect of MRGPX2 compound.
For orientation: BRET reads energy transfer from a luciferase to a nearby fluorophore.

Another assay concerns the target NK1R (Homo sapiens (Human), UniProt P25103). The assay is described as follows: FLIPR Ca2+ assay, antagonist mode, NK1R stable cell line. Format: cell-based. As for the experimental part:
(§1) FLIPR Ca2+ assay. Tetracycline inducible MRGPRX2 or MRGPRX4 stable cells [Flp-In™ T-REx™-293 cell which is derived from HEK 293 cells (ATCC, CRL 1573)] were maintained in DMEM containing 10% (v/v) FBS, 100 units ml^−1 penicillin G, 100 μg ml^−1 streptomycin, 100 μg ml^−1 hygromycin B, and 15 μg ml^−1 blasticidin ^16. NK1 stably expressing cell were maintained in DMEM containing 10% (v/v) FBS, 100 units ml^−1 penicillin G and 100 μg ml^−1 streptomycin. On the day of assay, cells were plated into Poly-L-Lysine (PLL) coated 384-well black clear bottom cell culture plates with DMEM buffer, which is composed of 1% (v/v) dialyzed FBS, 100 units ml^−1 penicillin G, 100 μg ml^−1 streptomycin with 1 μg ml^−1 tetracycline at density of 20,000 cells in 40 μl per well for overnight. For NK1 stable cells, the same media used for MRGPRX2 or MRGPRX4 cells except the tetracycline were used. […] Once loaded in FLIPR (Molecular Devices), basal fluorescence was measured for 10 s, then 10 μl of test compounds were added followed by continued fluorescence measurement for an additional 120 s. […] Data were normalized to % reference compound stimulation and analyzed using nonlinear regression “log(agonist) vs. response” in GraphPad Prism 9.0.

The next assay deals with MRGPRX4 (Homo sapiens (Human), UniProt Q96LA9). Description: FLIPR Ca2+ assay, antagonist mode, tetracycline-inducible MRGPRX4 stable cell line. Format: cell-based. As for the experimental part: as §1
MRGPRX4, sequence (Q96LA9 whole entry): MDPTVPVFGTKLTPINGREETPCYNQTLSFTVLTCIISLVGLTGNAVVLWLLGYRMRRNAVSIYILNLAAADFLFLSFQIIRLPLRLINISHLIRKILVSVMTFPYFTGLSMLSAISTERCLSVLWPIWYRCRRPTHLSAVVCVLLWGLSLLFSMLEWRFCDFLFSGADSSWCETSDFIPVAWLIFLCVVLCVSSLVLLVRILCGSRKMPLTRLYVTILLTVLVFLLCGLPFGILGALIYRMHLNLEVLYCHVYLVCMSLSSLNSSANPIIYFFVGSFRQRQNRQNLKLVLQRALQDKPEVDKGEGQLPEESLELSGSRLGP
The test system of another assay is LAD2 human mast cells. Description: Human mast cell activation (beta-hexosaminidase release) assay. The following applies: (R)-ZINC-3573 stimulation; listed as C9. Format: cell-based. Here is the method:
Human Mast Cell activation (Beta-hexosaminidase release) Assay. Mast cell activation was assessed by measuring extracellular release of Beta-hexosaminidase, a major component of mast cell granules. To assay human mast cell Beta-hexosaminidase release, LAD2 human mast cells were seeded at a concentration of 2*10^5 cells per well in 96-well plates in Tyrode's buffer (100 μl). 15 minutes prior to activation, varying concentrations of either C7 or C9 were added to the wells to reach a total volume of 190 μl. For activation, (R)-ZINC-3573 (10 μl, 2 μM) was added to each well for 30 minutes at 37° C. Separate wells received either buffer (buffer control), 0.1% Triton X-100 (total beta-hexosaminidase control), or (R)-ZINC-3573 alone (positive control) for the same amount of time. 30 μl of the supernatant were then removed from each well and added to 10 μl of NAG substrate solution (p-nitrophenyl-N-acetyl-β-D-glucosaminide) and allowed to incubate for 1 hour at 37° C. Carbonate buffer (100 μl) was then added to each well and the absorbance of each well was immediately measured at 405 nm using a plate reader. Percent degranulation (%) was calculated as follows: ((Treatment release−buffer release)/(total release−buffer release))*100. Samples were run in quadruplicate and each compound was assayed in at least two independent experiments. Data were analyzed using GraphPad Prism 9.0.

Assay [3] concerns a number of GPCRs, ion channels and transporters. Description: Off-target profiling / inhibition screen (NIMH PDSP binding assays). The following applies: screened at 10 μM. As for the experimental part: Inhibition screen. Binding assays were performed by the NIMH Psychoactive Drug Screening program as described previously (PMID: 23235874). Detailed binding assay protocols are available at: https://pdspdb.unc.edu/pdspWeb/content/UNC-CH %20Protocol %20Book.pdf.

Where [4] appears, read: Table 1, read-out: pKi (calc.) (converted).
Setting [5] is: antagonist activity at MRGPRX2, EC80 (R)-ZINC-3573 (3 μM), read-out: Ki value.

Entries after “also recorded” stand apart in the source; their conditions may differ. Where two headings read alike, the source gives them in different places.

T1 sequence (Q96LB1 whole entry): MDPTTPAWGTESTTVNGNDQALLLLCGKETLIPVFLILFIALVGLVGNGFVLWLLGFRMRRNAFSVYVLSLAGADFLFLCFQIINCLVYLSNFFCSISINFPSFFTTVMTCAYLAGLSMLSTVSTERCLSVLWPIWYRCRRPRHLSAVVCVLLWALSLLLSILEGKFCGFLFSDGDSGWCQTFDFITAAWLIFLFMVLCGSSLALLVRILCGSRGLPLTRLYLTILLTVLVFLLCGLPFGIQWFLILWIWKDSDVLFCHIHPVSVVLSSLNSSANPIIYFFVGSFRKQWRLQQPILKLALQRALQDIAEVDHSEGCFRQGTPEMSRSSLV
NK1R, sequence (P25103 whole entry, species assumed): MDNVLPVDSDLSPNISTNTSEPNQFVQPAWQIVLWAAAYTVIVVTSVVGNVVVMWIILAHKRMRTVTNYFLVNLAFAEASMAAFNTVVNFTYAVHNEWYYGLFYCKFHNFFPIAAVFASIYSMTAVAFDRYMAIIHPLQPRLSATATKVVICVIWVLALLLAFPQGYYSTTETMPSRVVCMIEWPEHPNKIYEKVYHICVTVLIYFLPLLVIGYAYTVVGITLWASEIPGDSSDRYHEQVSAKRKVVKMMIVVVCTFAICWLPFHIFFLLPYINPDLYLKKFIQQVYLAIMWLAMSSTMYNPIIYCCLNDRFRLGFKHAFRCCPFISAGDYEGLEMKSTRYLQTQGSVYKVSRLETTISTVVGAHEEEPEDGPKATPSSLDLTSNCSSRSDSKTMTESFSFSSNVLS

As to `O=c1c2ccccc2[nH]c(=S)n1Cc1ccccc1` [Compound 1], the Ki on MRGPRX2 [1] (Table 1, read-out: Ki) was 57 nM; on MRGPRX2 [1] (setting [4]), 63.1 nM.

As for `O=c1c2ccccc2[nH]c(=S)n1Cc1ccon1` [Compound 5], the Ki is 895 nM at MRGPRX2 [1] (Table 1, read-out: Ki) and 1000 nM on MRGPRX2 [1] (setting [4]).

Consider `Cn1ccnc1Cn1c(=S)[nH]c2ccccc2c1=O` [Compound 6], for which the “pKi (calc.)” value on MRGPRX2 [1] (Table 1) is recorded as 6.5. For the same molecule, the Ki at MRGPRX2 [1] (Table 1, read-out: Ki) was 318 nM.

Turning to `O=c1c2ccccc2[nH]c(=S)n1CCc1ccccn1` [Compound 7], the “pKi (calc.)” value at MRGPRX2 [1] (Table 1) is given as 5.2. In addition, on MRGPRX2 [1] (Table 1, read-out: Ki), the Ki was 6520 nM. Also, on MRGPRX2 [1], the “antagonist activity for MRGPRX2” value is “inactive control”.

For `COc1cccnc1Cn1c(=S)[nH]c2ccccc2c1=O` [Compound 8], the Ki at MRGPRX2 [1] (Table 1, read-out: Ki) was 57 nM; at MRGPRX2 [1] (setting [4]), 63.1 nM.

On to `O=c1c2ccccc2[nH]c(=S)n1Cc1nccs1` [Compound 9], for which the “inhibition of substance P stimulated MRGPRX2 activation” value against MRGPRX2 [1] (listed as C9) is recorded as “inhibit substance P stimulated MRGPRX2 activation; also recorded: could inhibit MRGPRX2 activation”. Further, at MRGPRX2 [1] (Table 1), the “pKi (calc.)” value is 7.5. Moreover, the Ki on MRGPRX2 [1] (Table 1, read-out: Ki) was determined as 32 nM; at MRGPRX2 [1] (setting [5]), 43 nM. Further, the “antagonist activity for MRGPRX2” value on MRGPRX2 [1] (listed as C9) is “improved antagonist activity; also recorded: most potent and selective antagonist”. The “inverse agonist activity, inhibition of basal recruitment of Gq by MRGPRX2” value at MRGPRX2 [2] (listed as C9) is “inhibit the basal recruitment of Gq by MRGPRX2; also recorded: inverse agonists”. The “antagonist activity towards NK1R” value at NK1R was “no antagonist activity”. Besides, the “antagonist activity towards MRGPRX4” value at MRGPRX4 was “no antagonist activity”. Moreover, the “inhibition of (R)-ZINC-3573-stimulated LAD2 human mast cell degranulation” value in the assay with LAD2 human mast cells is recorded as “inhibit MRGPRX2 mediated LAD2 human mast activation; also recorded: inhibit (R)-ZINC-3573-stimulated LAD2 human mast cell degranulation in a concentration-dependent manner”. For the same molecule, the off-target activity result in assay [3] is “no significant activity”.

`O=c1c2cc(F)ccc2[nH]c(=S)n1Cc1ccccn1` [Compound 14]: the “pKi (calc.)” value at MRGPRX2 [1] (Table 1) is given as 5.6. Further, the Ki on MRGPRX2 [1] (Table 1, read-out: Ki) is 2520 nM.

Turning to `O=c1c2ccccc2[nH]c(=S)n1Cc1ccon1` [Compound C9-1], the “pKi (calc.)” value at MRGPRX2 [1] (Table 1) is 6.76 ± 0.21. At MRGPRX2 [1] (Table 1, read-out: Ki), the Ki amounted to 172 nM.

In the case of `O=c1c2ccccc2[nH]c(=S)n1Cc1ccc(Cl)cc1` [Compound C9-3], the “pKi (calc.)” value at MRGPRX2 [1] (Table 1) was 5.75 ± 0.16. Moreover, the Ki at MRGPRX2 [1] (Table 1, read-out: Ki) amounted to 1780 nM.

Turning to `O=c1c2ccccc2[nH]c(=S)n1Cc1ccccc1Cl` [Compound C9-4], the “pKi (calc.)” value at MRGPRX2 [1] (Table 1) is recorded as 5.93 ± 0.3. The Ki on MRGPRX2 [1] (Table 1, read-out: Ki) worked out at 1160 nM.

Regarding `COc1ccccc1Cn1c(=S)[nH]c2ccccc2c1=O` [Compound C9-5], the “pKi (calc.)” value at MRGPRX2 [1] (Table 1) is listed as 7.01 ± 0.07. Besides, on MRGPRX2 [1] (Table 1, read-out: Ki), the Ki was found to be 98 nM.

Take `O=c1c2ccccc2[nH]c(=S)n1Cc1ccco1` [Compound C9-6]: the “inhibition of substance P stimulated MRGPRX2 activation” value against MRGPRX2 [1] was “inhibit substance P stimulated MRGPRX2 activation; also recorded: could inhibit MRGPRX2 activation”. On MRGPRX2 [1] (Table 1), the “pKi (calc.)” value is 7.42 ± 0.06. For the same molecule, the Ki turned out to be 38 nM on MRGPRX2 [1] (Table 1, read-out: Ki) and 58 nM at MRGPRX2 [1] (setting [5]). In addition, the “antagonist activity for MRGPRX2” value at MRGPRX2 [1] was “improved antagonist activity; also recorded: most potent and selective antagonist”. In addition, at MRGPRX2 [2], the “inverse agonist activity, inhibition of basal recruitment of Gq by MRGPRX2” value is given as “inhibit the basal recruitment of Gq by MRGPRX2; also recorded: inverse agonists”. Also, on NK1R, the “antagonist activity towards NK1R” value is “no antagonist activity”. For the same molecule, the “antagonist activity towards MRGPRX4” value at MRGPRX4 is recorded as “no antagonist activity”. For the same molecule, the off-target activity result in assay [3] is on record as “no significant activity”.

Regarding `Cc1csc(Cn2c(=S)[nH]c3ccccc3c2=O)n1` [Compound C9-7], the “pKi (calc.)” value at MRGPRX2 [1] (Table 1) is reported as 6.03 ± 0.08. On MRGPRX2 [1] (Table 1, read-out: Ki), the Ki came to 929 nM.

Regarding `O=c1c2ccccc2[nH]c(=S)n1Cc1cccs1` [Compound C9-8], the “pKi (calc.)” value at MRGPRX2 [1] (Table 1) was 6.29 ± 0.23. The Ki at MRGPRX2 [1] (Table 1, read-out: Ki) was determined as 514 nM.

As for `O=c1c2ccccc2[nH]c(=S)n1Cc1ccsc1` [Compound C9-9], the “pKi (calc.)” value at MRGPRX2 [1] (Table 1) is reported as 7.32 ± 0.04. In addition, on MRGPRX2 [1] (Table 1, read-out: Ki), the Ki is 47 nM.

On to `O=c1c2ccccc2[nH]c(=S)n1Cc1ccccn1` [ZINC16991592, reference compound], for which the Ki at MRGPRX2 [1] (Table 1, read-out: Ki) is 2190 nM; at MRGPRX2 [1] (setting [4]), 2340 nM; at MRGPRX2 [1] (setting [5]), 189 nM.
